Measurements reported in PubChem BioAssay (NCI).
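Results reflect a 48-hour exposure of cells in 96-well plates to compound at five concentrations. TGI marks complete inhibition of growth.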

What was measured:
Experiment in all cases: DTP human tumour cell line panel, 48 h
T-47D breast = system: T-47D breast
SF-539 CNS = system: SF-539 CNS
PC-3 prostate = system: PC-3 prostate
NCI/ADR-RES ovarian = system: NCI/ADR-RES ovarian
RPMI-8226 leukemia = system: RPMI-8226 leukemia
SK-MEL-2 melanoma = system: SK-MEL-2 melanoma
SR leukemia = system: SR leukemia
CAKI-1 renal = system: CAKI-1 renal
HCT-116 colon = system: HCT-116 colon
TK-10 renal = system: TK-10 renal
KM12 colon = system: KM12 colon
U251 CNS = system: U251 CNS
SN12C renal = system: SN12C renal
NCI-H226 lung = system: NCI-H226 lung
NCI-H522 lung = system: NCI-H522 lung
MDA-MB-231 breast = system: MDA-MB-231 breast
HOP-62 NSCLC = system: HOP-62 NSCLC
CCRF-CEM leukemia = system: CCRF-CEM leukemia
EKVX NSCLC = system: EKVX NSCLC
DU-145 prostate = system: DU-145 prostate
SF-268 CNS = system: SF-268 CNS
SK-MEL-28 melanoma = system: SK-MEL-28 melanoma
UACC-62 melanoma = system: UACC-62 melanoma
IGROV1 ovarian = system: IGROV1 ovarian
UO-31 renal = system: UO-31 renal
OVCAR-8 ovarian = system: OVCAR-8 ovarian
SNB-75 CNS = system: SNB-75 CNS
A549 NSCLC = system: A549 NSCLC
SNB-19 CNS = system: SNB-19 CNS
RXF 393 renal = system: RXF 393 renal
K-562 leukemia = system: K-562 leukemia
786-0 renal = system: 786-0 renal
MOLT-4 leukemia = system: MOLT-4 leukemia
A498 renal = system: A498 renal
HOP-92 NSCLC = system: HOP-92 NSCLC
HL-60(TB) leukemia = system: HL-60(TB) leukemia
OVCAR-5 ovarian = system: OVCAR-5 ovarian
HCC-2998 colon = system: HCC-2998 colon
LOX IMVI melanoma = system: LOX IMVI melanoma
M14 melanoma = system: M14 melanoma
ACHN renal = system: ACHN renal
HCT-15 colon = system: HCT-15 colon
OVCAR-4 ovarian = system: OVCAR-4 ovarian
NCI-H460 lung = system: NCI-H460 lung
HS 578T breast = system: HS 578T breast
MALME-3M melanoma = system: MALME-3M melanoma
NCI-H23 lung = system: NCI-H23 lung
HT29 colon = system: HT29 colon
BT-549 breast = system: BT-549 breast
UACC-257 melanoma = system: UACC-257 melanoma
MCF7 breast = system: MCF7 breast
MDA-N = system: MDA-N
MDA-MB-435 = system: MDA-MB-435
COLO 205 colon = system: COLO 205 colon
SW-620 colon = system: SW-620 colon
SK-MEL-5 melanoma = system: SK-MEL-5 melanoma
SF-295 CNS = system: SF-295 CNS
OVCAR-3 ovarian = system: OVCAR-3 ovarian
SK-OV-3 ovarian = system: SK-OV-3 ovarian

Measured: TGI

C[C@H](CCC(=O)O)[C@H]1CC[C@H]2[C@@H]3C(=O)C[C@@H]4C[C@H](O)CC[C@]4(C)[C@H]3C[C@H](O)[C@]12C
78.9 µM: HS 578T breast
> 100 µM: T-47D breast | SF-539 CNS | PC-3 prostate | NCI/ADR-RES ovarian | RPMI-8226 leukemia | SK-MEL-2 melanoma | SR leukemia | CAKI-1 renal | HCT-116 colon | TK-10 renal | KM12 colon | U251 CNS | SN12C renal | NCI-H226 lung | NCI-H522 lung | MDA-MB-231 breast | HOP-62 NSCLC | CCRF-CEM leukemia | EKVX NSCLC | DU-145 prostate | SF-268 CNS | SK-MEL-28 melanoma | UACC-62 melanoma | IGROV1 ovarian | UO-31 renal | OVCAR-8 ovarian | SNB-75 CNS | A549 NSCLC | SNB-19 CNS | RXF 393 renal | K-562 leukemia | 786-0 renal | MOLT-4 leukemia | A498 renal | HOP-92 NSCLC | HL-60(TB) leukemia | OVCAR-5 ovarian | HCC-2998 colon | LOX IMVI melanoma | M14 melanoma | ACHN renal | HCT-15 colon | OVCAR-4 ovarian | NCI-H460 lung | MALME-3M melanoma | NCI-H23 lung | HT29 colon | BT-549 breast | UACC-257 melanoma | MCF7 breast | MDA-N | MDA-MB-435 | COLO 205 colon | SW-620 colon

O=C1OC(C2Cc3ccc4ccccc4c3C2=O)c2ccccc21 (stereo not given)
49.5 µM: RXF 393 renal
88.9 µM: HS 578T breast
98.1 µM: OVCAR-3 ovarian
65.3 µM: OVCAR-4 ovarian
56.5 µM: SF-539 CNS
93.3 µM: RPMI-8226 leukemia
49.7 µM: NCI-H226 lung
92.6 µM: SNB-19 CNS
98.2 µM: SK-MEL-5 melanoma
> 100 µM: T-47D breast | PC-3 prostate | NCI/ADR-RES ovarian | SK-MEL-2 melanoma | SR leukemia | CAKI-1 renal | HCT-116 colon | TK-10 renal | KM12 colon | U251 CNS | SN12C renal | NCI-H522 lung | MDA-MB-231 breast | CCRF-CEM leukemia | EKVX NSCLC | DU-145 prostate | SF-268 CNS | SK-MEL-28 melanoma | UACC-62 melanoma | IGROV1 ovarian | UO-31 renal | OVCAR-8 ovarian | SNB-75 CNS | A549 NSCLC | K-562 leukemia | 786-0 renal | MOLT-4 leukemia | A498 renal | HOP-92 NSCLC | SF-295 CNS | HL-60(TB) leukemia | OVCAR-5 ovarian | HCC-2998 colon | LOX IMVI melanoma | M14 melanoma | ACHN renal | HCT-15 colon | NCI-H460 lung | MALME-3M melanoma | BT-549 breast | UACC-257 melanoma | MCF7 breast | MDA-N | MDA-MB-435 | COLO 205 colon | SW-620 colon

NNC(=O)CNc1cccc(Br)c1
> 100 µM: T-47D breast | SF-539 CNS | PC-3 prostate | NCI/ADR-RES ovarian | RPMI-8226 leukemia | SK-MEL-2 melanoma | SR leukemia | CAKI-1 renal | HCT-116 colon | TK-10 renal | KM12 colon | U251 CNS | SN12C renal | NCI-H226 lung | NCI-H522 lung | MDA-MB-231 breast | HOP-62 NSCLC | SK-MEL-5 melanoma | EKVX NSCLC | DU-145 prostate | SF-268 CNS | SK-MEL-28 melanoma | UACC-62 melanoma | IGROV1 ovarian | UO-31 renal | OVCAR-8 ovarian | SNB-75 CNS | A549 NSCLC | SNB-19 CNS | RXF 393 renal | K-562 leukemia | 786-0 renal | A498 renal | HOP-92 NSCLC | SF-295 CNS | SK-OV-3 ovarian | HL-60(TB) leukemia | OVCAR-5 ovarian | HCC-2998 colon | LOX IMVI melanoma | M14 melanoma | ACHN renal | HCT-15 colon | OVCAR-4 ovarian | NCI-H460 lung | HS 578T breast | MALME-3M melanoma | NCI-H23 lung | HT29 colon | BT-549 breast | UACC-257 melanoma | MCF7 breast | MDA-N | MDA-MB-435 | COLO 205 colon | SW-620 colon | OVCAR-3 ovarian

C/C(=N\N=C1/C(=O)OC(c2ccccc2)=C1C(=O)c1ccccc1)c1ccc([N+](=O)[O-])cc1
79.4 µM: NCI-H226 lung
75.1 µM: CCRF-CEM leukemia
> 100 µM: T-47D breast | SF-539 CNS | PC-3 prostate | NCI/ADR-RES ovarian | SK-MEL-2 melanoma | CAKI-1 renal | HCT-116 colon | TK-10 renal | KM12 colon | U251 CNS | SN12C renal | MDA-MB-231 breast | HOP-62 NSCLC | SK-MEL-5 melanoma | EKVX NSCLC | DU-145 prostate | SF-268 CNS | SK-MEL-28 melanoma | UACC-62 melanoma | IGROV1 ovarian | UO-31 renal | OVCAR-8 ovarian | A549 NSCLC | SNB-19 CNS | RXF 393 renal | K-562 leukemia | 786-0 renal | A498 renal | SF-295 CNS | SK-OV-3 ovarian | HL-60(TB) leukemia | OVCAR-5 ovarian | HCC-2998 colon | LOX IMVI melanoma | M14 melanoma | ACHN renal | OVCAR-4 ovarian | NCI-H460 lung | HS 578T breast | MALME-3M melanoma | NCI-H23 lung | HT29 colon | UACC-257 melanoma | MCF7 breast | MDA-N | MDA-MB-435 | COLO 205 colon | SW-620 colon | OVCAR-3 ovarian
67.6 µM: HCT-15 colon
34.6 µM: SR leukemia
52.7 µM: MOLT-4 leukemia
83.3 µM: HOP-92 NSCLC
48.9 µM: RPMI-8226 leukemia
83.5 µM: NCI-H522 lung
72.6 µM: BT-549 breast
